In US6949528B1, “Compositions containing lysophosphatidic acids which inhibit apoptosis and uses thereof” (priority 1998, dated 2005):

Key:
[1] = tested on: rat neonatal cardiomyocytes; experiment: Cardiomyocyte death induced by serum/glucose deprivation; assay type: cell-based; settings: serum/glucose deprivation
Procedure: (§1) Cardiomyocytes were prepared from hearts of day-old Sprague Dawley rats by trypsinization and mechanical disaggregation (Simpson, (1985)) Circ. Res. 56:884-894. The cells were resuspended in MEM, 1×MEM vitamins (Gibco), 5% fetal bovine serum and 50 U/ml penicillin-G and pre-plated for 30 minutes to reduce contamination of non-myocytes. The non-adherent cardiac myocytes were separated and seeded in 2 ml in 35 mm dishes at a density of 3.5×10^5 viable cells per ml. The cells were allowed to adhere for 16-24 hours in a 37° C./5% CO2 humidified incubator.
(§2) For serum deprivation, the medium was replaced with fresh serum-free RPMI, whereas serum/glucose deprivation was performed using glucose-free RPMI. The induction of cell death by adriamycin or C2-ceramide was accomplished by the addition of the agent prepared in serum-free RPMI. As a model of ischemia, cultures in serum and glucose free RPMI were placed in an airtight chamber and the latter was continuously perfused with oxygen-free gas overlay of 95% N2/5% CO2 for 8 hours at 37° C. To model reperfusion of the ischemic cells, 10% fetal bovine serum, 2 g/L of glucose were added and the cultures were returned to a normal oxygen gas overlay (37° C./5% CO2) in a humidified incubator for 16 hours.
T investigate effects of LPA, LPA plus other phospholipids, PEG or their mixtures on cell death, various combinations of these components were added to cells in serum free medium at the beginning of cytotoxic treatment.
(§3) Because cardiomyocytes are terminally differentiated non-dividing cells, viability was determined by measurement of the decrease in the relative number of adherent cells. […] Adherent cardiomyocytes were collected from culture dishes using 0.25% Trypsin/0.05% EDTA and counted on Coulter Counter ZM and Coulter Channelyzer 256.

[2] = tested on: rat neonatal cardiomyocytes; experiment: Cardiomyocyte death induced by ischemia and reperfusion; assay type: cell-based; settings: in mixture with PEG, FIG. 14
Procedure: as §1
as §2, with “To model reperfusion of the ischemic cells, 10% fetal bovine serum, 2 g/L of glucose were added and the cultures were returned to a normal oxygen gas overlay (37° C./5% CO2) in a humidified incubator for 16 hours.” left out
as §3

C3H/10T1/2 cells [3] = experiment: Anti-apoptotic activity assay: serum deprivation of C3H/10T1/2 cells; assay type: cell-based
Excerpt: In order to determine the […] of the claimed invention, the following method of analysis was used. The cell assay is described in detail in U.S. Pat. Nos. 5,637,486, 5,620,888, and 5,681,703, and Tomei et al. (1993) Proc Natl. Aci. 90:853-857. Briefly, mouse fibroblast C3H/10T1/2 cells (clone 8) were obtained from ATCC (Rockville, Md.) and were maintained in exponential growth phase in which the cell cycle is randomly distributed and no cells are arrested in G0, and in quiescence. Exponential growth phase was assured by seeding at 2000 cells per 1 ml (5 ml for 60 mm culture plate) five days prior to the beginning of the experiment. Assays were performed on cells only up to passage 15. At T=0, cultures were transferred to serum-free medium, as an appropriate stimulus, and seed extracts were added. Controls included 10^−7 and 5×10^−8 M 12-O-tetradecanoyl phorbol-13-acetate (TPA) to ensure the responsiveness of the cell culture. The samples were added to serum free medium and sterile filtered prior to addition to the cultures. Assays were performed in triplicate or quadruplicate. Analyses of the cell responses were made between 18 and 28 hours of serum deprivation. Two assays were performed on each cell culture plate consisting of differential cell counts.
1. All non-adherent or loosely adherent cells were removed from the culture dish and counted by appropriate techniques, typically counting by electronic particle counting instrument. These are the apoptotic cells, the serum deprived released cells (SDR), released by the action of cultivation in serum-free medium. Approximately 95% of these released cells are apoptotic as shown by both ultrastructure analysis and DNA fragmentation analysis.
2. The remaining adherent cells (ADH) were exposed to a buffered, typically pH 7.3, balanced salt solution such as a Hanks Balanced Salt Solution without calcium and magnesium salts containing 0.05% trypsin and 0.53 mM ethylene diaminetetraacetic acid (EDTA). Each culture was incubated at either room temperature or 37(C on a rocking platform to ensure uniform distribution of the trypsin reagent over the culture surface. After a standardized period of time, typically 10 minutes, the released cells were removed from each culture dish and measured by the same means as described above, typically electronic particle counting. This ADH cell count is comprised of both trypsin resistant and trypsin sensitive cells as described in U.S. Pat. Nos. 5,637,486, 5,620,888, and 5,681,703.
Anti-apoptotic activity is expressed in the following examples as the calculated concentration of material ((g/ml of media) required to save 50% of the cells released on serum free treatment.
The ability of 18:1-LPA an other LPAs to protect serum-starved cells from apoptotic death was measured using the C3H/10T1/2 cell assay, performed as described in Example 2. The effect of various compounds on the ability of lysophosphatidic acid to protect serum-starved cells from apoptotic death was also measured. Log phase cells were seeded in 60 mm Petri dishes at 175-350 cells per cm2 and maintained in Basal Medium Eagle (BME) supplemented with 10% Heat Inactivated Fetal Bovine Serum (HIFBS). On day 3 the cells were given fresh media. Treatment began on day 5 when the media containing serum was removed and replaced with the LPA mixture to be tested. After 24 hours of treatment, day 6, serum deprived released (SDR) cells (the […] cell population) and adherent (ADH) cells were separated and counted using an electronic cell counter (Coulter Corporation, Hialea, Fla.). […]

C3H/10T1/2 cells [4] = experiment: Effect of proteins on anti-apoptotic activity of soy LPA, C3H/10T1/2 cell assay; assay type: cell-based; settings: for Protein +10 (g/mL Soy LPA, percent cells saved from apoptosis): 1:10 soy-LPA to protein (weight:weight); for Protein +10 (g/mL Soy LPA, percent cells saved from apoptosis) / Protein Alone (0.01%), percent cells saved from apoptosis: 24 hours serum deprivation; for Increase with LPA: difference protein + soy LPA minus protein alone; for Protein Alone (0.01%), percent cells saved from apoptosis: protein without LPA; for enhancement of the anti-apoptotic activity of soy-LPA (more than additive protection): soy-LPA added together with protein
Procedure: Soy derived LPA (soy-LPA) (Avanti® Polar Lipids, Inc., Alabaster, Ala.) was stored in an organic solution and was dried immediately prior to assay using a Speed Vac (Savant Instruments, Hicksville, N.Y.). Tested proteins were resuspended at 10_mg/mL in a bicarbonate buffered saline/EDTA solution (50_mM NH4HCO3, […] NaCl, 250_(M EDTA) prior to being added to dried soy-LPA at a 1:10_soy-LPA to protein (weight:weight) ratio. The mixture was then sonicated for 5 minutes using a high power 80 Watt sonication bath (Laboratory Supplies Co., Hicksville, N.Y.). Following sonication, concentrated LPA/protein mixtures were left standing for 15 minutes at room temperature prior to dilution in cell culture assay media.
The effect of various proteins on the ability of LPA to protect serum-starved cells from apoptotic death was measured using the C3H/10T1/2 cell assay, performed as described in Example 2, above. Log phase cells were seeded in 60 mm Petri dishes at 175-350 cells per cm^2 and maintained in Basal Medium Eagle (BME) supplemented with 10% fetal calf serum (Hyclone, Logan, Utah). At time zero, serum containing media was replaced with sterile filtered BME containing the LPA/protein mixture to be tested. After 24 hours of treatment, serum deprived release (SDR) cells (the apoptotic cell population) and adherent (ADH) cells were separated and counted using an electronic cell counter (Coulter Corporation, Hialea, Fla.). SDR cells were counted with the lower threshold setting at 6.3_(m and were defined as the apoptotic cells dying in response to cultivation in serum-free-media. Approximately 95% of the SDR cells are confirmed to be apoptotic as previously shown by size, ultrastructure and DNA fragmentation analysis. Adherent cells were removed by treatment with a Hanks' balanced salt solution containing 0.05% trypsin and 0.53_mM EDTA and were counted with the lower threshold setting at 11.01_(m. All samples were tested in triplicate and serum-deprived controls (BME only) were assayed at both the beginning and end of each experiment.

[5] = Electrophoresis radiobinding assay (native polyacrylamide gel); assay type: binding; settings: FIG. 9 and other experiments
Procedure: Electrophoresis radiobinding assay. Proteins were analyzed on native polyacrylamide gels following incubation with ^3H-labeled 18:1-LPA. ^3H-labeled lysophosphatidic acid (1-oleyl) (DuPont NEN Products, Boston, Mass.) was added to tested proteins at 1 nM labeled 18:1-LPA/45_(g protein. Mixtures were incubated at a bicarbonate buffered saline/EDTA solution at 37° C. for 60 minutes. Incubated samples were mixed with native gel sample buffer (312_mM Tris pH 6.8, 50% glycerol, 0.05% bromophenol blue) and loaded entirely onto an 8% discontinuous native polyacrylamide gel. Following electrophoresis, proteins were fixed into the gels using an aqueous solution consisting of glacial acetic acid, 10% (vol/vol) and methan 130% (vol./vol.) solution. Fixed gels were then incubated for 60 minutes in autoradiography enhancer (EN^3HANCE, DuPont NEN Products, Boston, Mass.), and dried onto 3M chromatography paper (Whatman, Clifton, N.J.) and exposed to autoradiography film (X-Omat, Kodak, Rochester, N.Y.) for 72 hours at −80° C.

[6] = Size shift assay (Superdex S75 column); assay type: binding; settings: FIGS. 10A-10D
Procedure: Size shift assay. Size analysis of LPA both with and without protein was performed using a Superdex® S75 column (Pharmacia Biotech, Uppsala, Sweden). Soy LPA was combined in a chloroform solution with 0.5 Ci^3H-labeled 18:1-LPA (DuPont NEN Products, Boston, Mass.), dried under vacuum and resuspended by sonication in a buffered solution (50 mM ammonium bicarbonate, 154 mM sodium chloride, pH 8.0) in the presence or absence of test protein. The ammonium bicarbonate/sodium chloride solution was used as the mobile phase at a flow rate of 1 ml/min. One-minute fractions were collected for 30 minutes following sample injection. Fractions were counted in scintillant solution using a liquid scintillation counter (Beckman Instrument, Irvine, Calif.). Calibration was performed using a standard solution containing purified proteins (BioRad, Hercules, Calif.).

[7] = serum-deprived C3H/10T1/2 cells, 24 hours of treatment

CCCCCCCC/C=C\CCCCCCCC(=O)OCC(O)COP(=O)(O)O (centres unmarked) [18:1 LPA, oleoyl-lysophosphatidic acid, reference compound]
Concentration ranges for cardiomyocyte protection [1]: 0.3 to 10 µM | Maximum effect relative to 18:1 LPA in cardiomyocytes [1]: 100% | protection against cardiomyocyte death [2]: equally protect | cells protected (C3H/10T1/2 cells [3]; 0.75 (g/ml added together with PS, FIG. 2)): approximately 75% | cells protected (C3H/10T1/2 cells [3]; 1:1 PG:PC particles with 23.5% by weight 18:1-LPA, FIG. 3): about 57% | cells protected (C3H/10T1/2 cells [3]; 5 (M, FIG. 5), medium alone 30%): about 62% | cells protected (C3H/10T1/2 cells [3]; 5 (M, FIG. 6)): 75% | cells protected (C3H/10T1/2 cells [3]; 15 (M, FIG. 6)): 80% | efficacy (C3H/10T1/2 cells [3]; 18:1-LPA/PG particles with 5 to 10 mol % PE-PEG (2000 MW), FIG. 2): reduced efficacy | cells saved (C3H/10T1/2 cells [3]; 23.5 weight percent with PG, FIG. 3): about 50% | cells protected (C3H/10T1/2 cells [3]; 30% (by weight) mixture with 1:1 PA:PI, equivalent to Five Phospholipid Mixture at 10 (g/ml, FIG. 7), medium alone 38%): about 82% | cells protected from apoptosis (C3H/10T1/2 cells [3]; LPA equivalent to 10 (g/ml Five Phospholipid Mixture, 10% by weight with PG, FIG. 3)): approximately 65% | anti-apoptotic activity (C3H/10T1/2 cells [3]; combined with BME (containing calcium) and filtered): appeared to be inhibited | anti-apoptotic activity (C3H/10T1/2 cells [3]; combined with BSA in BME (containing calcium)): preserved the anti-apoptotic activity | protection from apoptosis (C3H/10T1/2 cells [3]; combined with polyethylene glycol or BSA): protects serum-deprived 10T1/2 cells from apoptosis | protection from serum deprivation-induced cell death (C3H/10T1/2 cells [3]; incorporated into PC, PC/PE-PEG, or PC/EtPC, FIG. 8): effective in protecting cells from serum deprivation-induced cell death | cells protected (C3H/10T1/2 cells [3]; incorporated into phosphatidyl glycerol (PG), FIG. 2): up to 90% | Concentration for Max Effect (C3H/10T1/2 cells [3]; [7]): 10 µM | Maximum effect relative to 18:1 LPA (C3H/10T1/2 cells [3]; [7]): 100%

Acyl Carrier Protein: acyl carrier protein from E. coli
Protein +10 (g/mL Soy LPA, percent cells saved from apoptosis) (C3H/10T1/2 cells [4]): 36.2% | Increase with LPA (C3H/10T1/2 cells [4]): +28.1% | Protein Alone (0.01%), percent cells saved from apoptosis (C3H/10T1/2 cells [4]): 8.1% | enhancement of the anti-apoptotic activity of soy-LPA (more than additive protection) (C3H/10T1/2 cells [4]): to a lesser degree | binding to 18:1-LPA, detectable band [5]: did not yield detectable bands

Albumin (Fatty Acid Depleted): fatty acid depleted (FAD) bovine serum albumin (BSA)
Protein +10 (g/mL Soy LPA, percent cells saved from apoptosis) (C3H/10T1/2 cells [4]): 58.7% | Increase with LPA (C3H/10T1/2 cells [4]): +57.8% | Protein Alone (0.01%), percent cells saved from apoptosis (C3H/10T1/2 cells [4]): 0.9% | binding to 18:1-LPA, detectable band [5]: bind to 18:1-LPA | elution profile / binding of LPA to protein [6]: most of the LPA was bound to BSA

Cytochrome C: cytochrome C from bovine heart
Protein +10 (g/mL Soy LPA, percent cells saved from apoptosis) (C3H/10T1/2 cells [4]): 54.6% | Increase with LPA (C3H/10T1/2 cells [4]): +38.4% | Protein Alone (0.01%), percent cells saved from apoptosis (C3H/10T1/2 cells [4]): 16.2% | elution profile / binding of LPA to protein [6]: LPA does not bind to this protein

B1: Ovalbumin: ovalbumin from chicken egg (protein, UniProt P01012 2-386, looked up)
Ovalbumin: GSIGAASMEFCFDVFKELKVHHANENIFYCPIAIMSALAMVYLGAKDSTRTQINKVVRFDKLPGFGDSIEAQCGTSVNVHSSLRDILNQITKPNDVYSFSLASRLYAEERYPILPEYLQCVKELYRGGLEPINFQTAADQARELINSWVESQTNGIIRNVLQPSSVDSQTAMVLVNAIVFKGLWEKAFKDEDTQAMPFRVTEQESKPVQMMYQIGLFRVASMASEKMKILELPFASGTMSMLVLLPDEVSGLEQLESIINFEKLTEWTSSNVMEERKIKVYLPRMKMEEKYNLTSVLMAMGITDVFSSSANLSGISSAESLKISQAVHAAHAEINEAGREVVGSAEAGVDAASVSEEFRADHPFLFCIKHIATNAVLFFGRCVSP
Protein +10 (g/mL Soy LPA, percent cells saved from apoptosis) (C3H/10T1/2 cells [4]): 15.I | Increase with LPA (C3H/10T1/2 cells [4]): +7.2% | Protein Alone (0.01%), percent cells saved from apoptosis (C3H/10T1/2 cells [4]): 7.9% | enhancement of the anti-apoptotic activity of soy-LPA (more than additive protection) (C3H/10T1/2 cells [4]): did not enhance | binding to 18:1-LPA, detectable band [5]: produce a detectable band
